For test [1], the target named is Sodium-dependent serotonin transporter (Rattus norvegicus, UniProt P31652). Briefly: Inhibitory activity against Serotonin transporter using 0.2 nM [3H]paroxetine as radioligand.
Test [2] concerns the target Norepinephrine transporter (Rattus norvegicus, UniProt Q9WTR4). Nature of the test: Inhibitory activity against Norepinephrine transporter using 0.5 nM [3H]-radioligand.
Test [3] concerns the target Sodium-dependent dopamine transporter (Rattus norvegicus, UniProt P23977). Nature of the test: Inhibitory activity against Dopamine transporter using 0.5 nM [3H]WIN-35428 as radioligand.

Sequence of Sodium-dependent serotonin transporter (P31652 whole entry): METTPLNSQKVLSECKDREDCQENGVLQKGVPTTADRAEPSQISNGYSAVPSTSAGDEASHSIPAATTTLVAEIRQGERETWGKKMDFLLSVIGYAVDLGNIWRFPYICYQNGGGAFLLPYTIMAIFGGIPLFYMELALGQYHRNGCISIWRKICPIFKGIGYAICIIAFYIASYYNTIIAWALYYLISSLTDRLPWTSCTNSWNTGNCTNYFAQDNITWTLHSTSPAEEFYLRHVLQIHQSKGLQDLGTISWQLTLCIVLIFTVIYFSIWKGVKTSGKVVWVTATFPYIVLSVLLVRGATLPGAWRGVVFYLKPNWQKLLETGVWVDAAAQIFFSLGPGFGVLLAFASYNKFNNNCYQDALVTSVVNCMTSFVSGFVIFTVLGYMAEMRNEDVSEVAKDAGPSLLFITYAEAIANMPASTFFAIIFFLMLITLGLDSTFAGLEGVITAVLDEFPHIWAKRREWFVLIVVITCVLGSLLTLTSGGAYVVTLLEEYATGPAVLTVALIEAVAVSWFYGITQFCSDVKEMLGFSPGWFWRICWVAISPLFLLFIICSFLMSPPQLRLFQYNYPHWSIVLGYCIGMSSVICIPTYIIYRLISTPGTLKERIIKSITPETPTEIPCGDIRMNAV
Sequence of Sodium-dependent dopamine transporter (P23977 whole entry): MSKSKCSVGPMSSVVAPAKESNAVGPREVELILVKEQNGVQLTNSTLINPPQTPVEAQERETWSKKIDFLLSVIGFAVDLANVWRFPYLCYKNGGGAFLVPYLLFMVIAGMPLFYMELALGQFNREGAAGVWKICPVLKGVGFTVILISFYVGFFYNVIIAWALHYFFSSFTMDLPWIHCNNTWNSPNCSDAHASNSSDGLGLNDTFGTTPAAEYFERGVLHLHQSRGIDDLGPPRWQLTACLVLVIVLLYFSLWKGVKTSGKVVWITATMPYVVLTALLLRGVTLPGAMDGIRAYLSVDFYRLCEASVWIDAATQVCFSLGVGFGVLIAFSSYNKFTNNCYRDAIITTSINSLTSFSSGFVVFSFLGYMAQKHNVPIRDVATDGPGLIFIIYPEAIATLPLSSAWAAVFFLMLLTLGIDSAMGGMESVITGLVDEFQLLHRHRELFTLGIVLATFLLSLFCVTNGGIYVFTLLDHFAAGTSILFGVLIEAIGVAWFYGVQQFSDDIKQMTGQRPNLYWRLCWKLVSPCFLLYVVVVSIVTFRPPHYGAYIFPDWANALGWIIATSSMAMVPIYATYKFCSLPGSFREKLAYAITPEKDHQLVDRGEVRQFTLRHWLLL
Sequence of Norepinephrine transporter (Q9WTR4 whole entry): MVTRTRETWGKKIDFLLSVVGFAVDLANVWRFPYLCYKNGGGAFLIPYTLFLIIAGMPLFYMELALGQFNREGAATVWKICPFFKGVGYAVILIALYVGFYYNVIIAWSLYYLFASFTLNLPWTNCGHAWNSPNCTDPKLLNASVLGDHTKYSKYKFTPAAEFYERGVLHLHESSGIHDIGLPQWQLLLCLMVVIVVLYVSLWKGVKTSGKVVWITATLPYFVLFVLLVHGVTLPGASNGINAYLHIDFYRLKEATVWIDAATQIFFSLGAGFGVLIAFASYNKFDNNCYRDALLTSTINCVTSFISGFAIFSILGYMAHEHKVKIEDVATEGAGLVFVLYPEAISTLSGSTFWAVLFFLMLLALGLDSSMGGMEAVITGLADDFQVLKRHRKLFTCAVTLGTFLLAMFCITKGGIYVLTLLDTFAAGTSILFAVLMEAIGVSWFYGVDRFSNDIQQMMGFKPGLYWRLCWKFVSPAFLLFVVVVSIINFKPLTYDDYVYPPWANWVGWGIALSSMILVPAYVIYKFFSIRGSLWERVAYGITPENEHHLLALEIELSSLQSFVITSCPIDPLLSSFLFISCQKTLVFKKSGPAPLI

For the compound `CN1[C@@H]2CC[C@H]1[C@H](c1ccccc1)[C@H](c1ccccc1)C2` (racemic), the IC50 (in general, the concentration at which inhibition is half-maximal) was found to be 18.6 µM in test [1] and 2.77 µM in test [2].

For `CN1[C@@H]2CC[C@H]1[C@@H](c1ccccc1)[C@@H](c1ccccc1)C2` (racemic), the IC50 in test [3] was found to be 0.028 µM; in test [1], 34.7 µM; in test [2], 2.67 µM.

For the compound `CN1C2CCC1C(c1ccccc1)=C(c1ccccc1)C2` (racemic), the figures for the IC50 in test [3], in test [1] and in test [2] were 0.55 µM, 47.8 µM and 21.4 µM, respectively.

Regarding `CN1[C@@H]2CC[C@@H]1C(O)(c1ccccc1)C(c1ccccc1)C2` (mixture of isomers), the values for the IC50 in test [3], in test [1] and in test [2] were 2.86 µM, 37.2 µM and more than 175 µM, respectively.
